According to patent US20190233825A1, “METHODS OF MODULATING CYTOSOLIC DNA SURVEILLANCE MOLECULES” (BAYER ANIMAL HEALTH GMBH, priority 2015, published 2019):

Tests used:
I-ISG54 promoter = test: SEAP reporter assay in B16-Blue ISG cells; format: cell-based, murine
Excerpt: B16-Blue™ ISG cells were derived from the murine B16 F1 melanoma cell line. They express the secreted embryonic alkaline phosphatase (SEAP) reporter gene under the control of the I-ISG54 promoter which is comprised of the IFN-inducible ISG54 promoter enhanced by a multimeric ISRE. Stimulation of B16-Blue™ ISG cells with IFNs, cyclic dinucleotides, such as cGAMP, or type I IFN inducers, such as transfected poly(dA:dT), triggers the activation of the I-ISG54 promoter and the production of SEAP.

STING = test: SEAP reporter assay in B16-Blue ISG-KO-STING cells; format: cell-based, murine
Excerpt: B16-Blue™ ISG-KO-STING cells were generated from the B16-Blue™ ISG cell line, a murine B16-F1 melanoma-derived cell line, through stable knockout of the STING gene. They express the secreted embryonic alkaline phosphatase (SEAP) reporter gene under the control of the I-ISG54 promoter which is comprised of the IFN-inducible ISG54 promoter enhanced by a multimeric ISRE. […] Stimulation of these cells with IFN triggers the activation of the I-ISG54 promoter and the production of SEAP.
Referring to FIG. 26, known STING pathways activators, Herpes simplex virus DNA complexed with LyoVec (HSV-LyoVec) and the cyclic dinucleotide 2′,3′-cGAMP were used to validate cell line properties.

BRD [1] = test: BRD treatment study in heifers: Baytril 100, Seq No 2-F, combination; format: in vivo, cattle; conditions: observed until day 60 post-diagnosis
BRD [2] = test: BRD treatment study in beef calves: Draxxin, Seq No 2-F, combination; format: in vivo, cattle; conditions: 56 days after diagnosis
Experimental: The purpose of this study was to compare the effectiveness of Draxxin®, Draxxin® and Seq No 2-F, or Seq No 2-F alone in cattle diagnosed with BRD.
The first group was administered 1.1 ml/cwt of Draxxin® subcutaneously at the time of diagnosis. […] A 3 day moratorium followed treatment, and the study concluded 56 days after the diagnosis.

BRD [3] = test: Metaphylaxis study in feedlot calves at medium risk of BRD versus Micotil; conditions: calves observed for 56 days
Experimental: Weaned beef calves with an average weight of 590 lbs and determined to be at medium risk for BRD were selected for this study.
Morbidity, mortality, average daily gain (ADG), dry matter intake (DMI), and feed to weight gain ratio were measured and compared between the study groups.

[4] = test system: interferon regulatory factor 3 (IRF-3); test: IRF-inducible SEAP reporter assay in THP1-Blue ISG (IRF-THP-1) cells
Excerpt: A human macrophage-like (monocyte) cell line (THP-1), derived from an acute monocytic leukemia patient, is used as a model system for monocyte function. THP1-Blue ISG cells (Invitrogen) were generated by stable integration of an interferon regulatory factor (IRF)-inducible secretory alkaline phosphatase (SEAP) reporter construct (IRF-THP1 cells). The THP-1 cells endogenously contain functional STING (Simulator of interferon genes) pathway molecules, as well as cytosolic DNA recognition receptors. STING receives signals from and is itself a cytosolic DNA surveillance molecule that acts through IRF-3. Activation of STING leads to SEAP production, which is then detectable in the culture supernatant. Thus, activation of the IRF-3 reporter SEAP construct correlates to activation of the STING pathway.
The stably transfected IRF-THP-1 cell line was tested for its functionality by IFN-α1, which is a global activator of different IRF pathways. IRF-THP-1 cells were contacted with human interferon α1 (IFN α1) as a positive control for IRF-3 activation. […] FIG. 4 graphically illustrates IFN α1 activation of IRF-3.

Molecule: Nc1nc2c(ncn2[C@@H]2O[C@@H]3COP(=O)(O)O[C@H]4[C@@H](O)[C@H](n5cnc6c(N)ncnc65)O[C@@H]4COP(=O)(O)O[C@@H]2[C@@H]3O)c(=O)[nH]1 [2′,3′-cGAMP]
- signal (interferon-response element readout) (I-ISG54 promoter; parental B16-Blue ISG cell line, FIG. 26): significant signals
- signal (interferon-response element readout) (STING): completely abrogated

Molecule: Nc1nc2c(ncn2[C@@H]2O[C@@H]3COP(=O)(O)O[C@H]4[C@@H](O)[C@H](n5cnc6c(N)ncnc65)O[C@@H]4COP(=O)(O)O[C@H]3[C@H]2O)c(=O)[nH]1 [3′,3′-cGAMP]
- SEAP signal (I-ISG54 promoter; controls, FIG. 21): expected specific signals

Molecule: CCN1CCN(c2cc3c(cc2F)c(=O)c(C(=O)O)cn3C2CC2)CC1 [Baytril 100, enrofloxacin]
- ADG (deads out) (BRD [1]): 1.8 lbs/day
- Avg wt gain (deads in) (BRD [1]): 24.3 lbs
- Avg wt gain (deads out) (BRD [1]): 87.00 lbs
- BRD Chronicity (BRD [1]): 22.10%
- BRD case-fatality (BRD [1]): 10.0%
- BRD repulls (BRD [1]): 44.8%

Molecule: CCCNC[C@]1(O)[C@H](C)O[C@@H](O[C@H]2[C@H](C)[C@@H](O[C@@H]3O[C@H](C)C[C@H](N(C)C)[C@H]3O)[C@](C)(O)C[C@@H](C)CN[C@H](C)[C@@H](O)[C@](C)(O)[C@@H](CC)OC(=O)[C@@H]2C)C[C@@]1(C)OC [Draxxin, tulathromycin]
- ADG (deads in) (BRD [2]): 3.2 lbs/day
- ADG (deads out) (BRD [2]): 3.3 lbs/day
- Avg wt gain (deads in) (BRD [2]): 181.1 lbs
- Avg wt gain (deads out) (BRD [2]): 187.0 lbs
- BRD Chronicity (BRD [2]): 4.0%
- BRD case-fatality (BRD [2]): 1.3%
- BRD morbidity (BRD [2]): 29.2%
- BRD repulls (BRD [2]): 37.2%
- Time to BRD Dx (BRD [2]): 18.8 days

Molecule: CC[C@H]1OC(=O)C[C@@H](O)[C@H](C)[C@@H](O[C@@H]2O[C@H](C)[C@@H](O)[C@H](N(C)C)[C@H]2O)[C@@H](CCN2C[C@H](C)C[C@H](C)C2)C[C@@H](C)C(=O)/C=C/C(C)=C/[C@@H]1CO[C@@H]1O[C@H](C)[C@@H](O)[C@@H](OC)[C@H]1OC [Micotil]
- ADG (BRD [3]): 2.96
- BRD Chronicity (BRD [3]): 27.90%
- BRD case-fatality (BRD [3]): 3.95%
- BRD repulls (BRD [3]): 17.9%
- DMI (BRD [3]): 12.96
- Feed: Gain (BRD [3]): 4.50
- Overall BRD Mortality (BRD [3]): 0.44%
- Time to BRD Dx (BRD [3]): 28.1

B1: IFN-α1: human interferon α1, positive control, global activator of different IRF pathways (protein, UniProt P01562 24-189, looked up)
Interferon alpha-1/13: CDLPETHSLDNRRTLMLLAQMSRISPSSCLMDRHDFGFPQEEFDGNQFQKAPAISVLHELIQQIFNLFTTKDSSAAWDEDLLDKFCTELYQQLNDLEACVMQEERVGETPLMNADSILAVKKYFRRITLYLTEKKYSPCAWEVVRAEIMRSLSLSTNLQERLRRKE
- SEAP signal (I-ISG54 promoter; IFN-α1 dosing, FIG. 20): clear dose-response relationship
- SEAP signal, dose-response curve ([4]; 1.5625-50 μg/ml, FIG. 11): dose-dependent response
- SEAP signal ([4]; IFN-α1 dosing, FIG. 4): clear dose-response relationship
